IC50 data for seven compounds are collected here from patent US8124807B2, “Sulfonyl-substituted 6-membered ring derivative” (MSD K.K., priority 2007, dated 2012).

The IC50 is the concentration that inhibits the measured activity by half. Higher therefore signals a need for much substance.

In the assay the target is T1, human LCE (Homo sapiens, UniProt Q9H5J4).
T1 sequence (Q9H5J4 1-265): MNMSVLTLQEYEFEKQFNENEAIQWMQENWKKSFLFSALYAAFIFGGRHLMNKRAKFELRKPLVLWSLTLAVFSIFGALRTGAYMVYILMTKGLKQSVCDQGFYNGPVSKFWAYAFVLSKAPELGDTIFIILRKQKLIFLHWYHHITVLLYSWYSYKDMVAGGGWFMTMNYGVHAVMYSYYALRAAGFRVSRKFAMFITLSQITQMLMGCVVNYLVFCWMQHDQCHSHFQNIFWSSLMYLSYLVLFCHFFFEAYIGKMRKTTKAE
As to the kind of experiment: LCE enzyme activity-inhibitory test. Format: biochemical. Conditions: palmitoyl CoA and [14C]-malonyl CoA substrates, pH 6.5, 37° C., 90 minutes. On the procedure:
A test compound was dissolved in dimethyl sulfoxide (DMSO to be 10 mM), and then diluted with DMSO to prepare a 1000-fold concentrated solution of the test concentration. An improved Moon et al's method (J. Biol. Chem., Vol. 276, pp. 45358-45366, 2001) was employed for the LCE enzyme activity-inhibitor test. Concretely, the diluted compound was applied to a 96-well assay plate (Corning, 96-well assay block) in an amount of 1.0 μL/well; 50 μL of a phosphate buffer solution (100 mM potassium phosphate buffer, pH 6.5), and 25 μL of a substrate solution (100 mM potassium phosphate buffer (pH 6.5), 4.0 μM rotenone, 80 μM fatty acid-free bovine serum albumin, 160 μM palmitoyl CoA, 80 μM malonyl CoA, 3.5 μM [^14C]-malonyl CoA (1.92 GBq/mmol, by Amersham)) were added to each well; 25 μL of an enzyme solution (100 mM potassium phosphate buffer (pH 6.5), 100 μg/mL human LCE) was added thereto; the top of the plate was airtightly sealed up; and this was incubated with gently shaking and stirring at 37° C. for 90 minutes. Next, 100 μL of 5 N hydrochloric acid was added to each well, and the assay plate was stirred at room temperature for 5 minutes to stop the enzyme reaction with hydrolyzing the acyl CoA. Next, the enzyme reaction solution in each well was adsorbed by each well of a 96-well GF/C filter plate (Perkin Elmer Unifilter 96 GF/C); the individual wells were washed with water to remove the non-adsorbed malonyl CoA; and the GF/C filter plate was dried at 50° C. for 60 minutes. Next, 30 μL of a scintillator (Perkin Elmer Microscinti 0) was added to each well; then the top of the plate was sealed up; and the fixed [^14C] radioactivity was measured with a microplate scintillation counter (Perkin Elmer TopCount) to be the enzyme activity. The human LCE enzyme-inhibitory activity of the test compound was calculated, based on the radioactivity of the DMSO-added well with no test compound therein as a control.
As to `CC(C)Oc1ccc(NC(=O)[C@@H]2CCC[C@@H](S(=O)(=O)c3ccccn3)C2)nc1` (racemic) [Example 8, (1R*,3R*)-N-(5-isopropoxypyridin-2-yl)-3-(pyridin-2-ylsulfonyl)cyclohexanecarboxamide], the IC50 was determined as 43 nM. For `CC(C)Oc1ccc(NC(=O)[C@@H]2CCC[C@@H](S(=O)(=O)c3ccncc3)C2)nc1` (racemic) [Example 9, (1R*,3R*)-N-(5-isopropoxypyridin-2-yl)-3-(pyridin-4-ylsulfonyl)cyclohexanecarboxamide] the value was 131 nM; for `CC(C)Oc1ccc(NC(=O)[C@@H]2CCC[C@@H](S(=O)(=O)c3ccccc3)C2)nc1` (racemic) [Example 7, (1R*,3R*)-N-(5-isopropoxypyridin-2-yl)-3-(phenylsulfonyl)cyclohexanecarboxamide], 30 nM.

`CC(C)Oc1ccc(NC(=O)[C@@H]2CCC[C@@H](S(=O)(=O)c3nccs3)C2)nc1` (racemic) [Example 11, (1R*,3R*)-N-(5-isopropoxypyridin-2-yl)-3-(1,3-thiazol-2-ylsulfonyl)cyclohexanecarboxamide] came in with an IC50 of 32 nM.

As for `CC(C)Oc1ccc(NC(=O)[C@@H]2CCC[C@@H](S(=O)(=O)c3cnccn3)C2)nc1` (racemic) [Example 13, (1R*,3R*)-N-(5-isopropoxypyridin-2-yl)-3-(pyrazin-2-ylsulfonyl)cyclohexanecarboxamide], the IC50 was 130 nM. For `CC(C)Oc1ccc(NC(=O)[C@@H]2CCC[C@@H](S(=O)(=O)c3ncccn3)C2)nc1` (racemic) [Example 10, (1R*,3R*)-N-(5-isopropoxypyridin-2-yl)-3-(pyrimidin-2-ylsulfonyl)cyclohexanecarboxamide] the value was 26 nM. With `CC(C)Oc1ccc(NC(=O)[C@@H]2CCC[C@@H](S(=O)(=O)c3ccccn3)C2)cc1` (racemic) [Example 2, (1R*,3R*)-N-(4-isopropoxyphenyl)-3-(pyridin-2-ylsulfonyl)cyclohexanecarboxamide], the IC50 was found to be 233 nM.
